Test results published in patent publication US20160367623A1, “AGONISTS OF GUANYLATE CYCLASE USEFUL FOR THE TREATMENT OF GASTROINTESTINAL DISORDERS, INFLAMMATION, CANCER AND OTHER DISORDERS” (priority 2015, published 2016).
Bridge positions count the residues as written; N and C are the ends. Ends that are not written are not given here.

Test system: patients with chronic idiopathic constipation (CIC)
Test: Second phase 3 CIC trial: change from baseline in CSBMs/week
Format: in vivo, human
Details: MRA
[1] = Week 3, 6 mg, ITT Population-Excluding Duplicate Patients
[2] = Week 4, 3 mg, ITT Population-Excluding Duplicate Patients
[3] = Week 4, 6 mg, ITT Population-Excluding Duplicate Patients
[4] = Week 5, 3 mg, ITT Population-Excluding Duplicate Patients
[5] = Week 5, 6 mg, ITT Population-Excluding Duplicate Patients
[6] = Week 6, 3 mg, ITT Population-Excluding Duplicate Patients
[7] = Week 6, 6 mg, ITT Population-Excluding Duplicate Patients
[8] = Week 7, 3 mg, ITT Population-Excluding Duplicate Patients
[9] = Week 7, 6 mg, ITT Population-Excluding Duplicate Patients
[10] = Week 8, 3 mg, ITT Population-Excluding Duplicate Patients

Asn^1-Asp^2-Glu^3-Cys^4-Glu^5-Leu^6-Cys^7-Val^8-Asn^9-Val^10-Ala^11-Cys^12-Thr^13-Gly^14-Cys^15-Leu^16 (NDECELCVNVACTGCL; disulfide 4-12, 7-15) [Plecanatide, uroguanylin analogue, guanylate cyclase-C agonist; (C4:C12, C7:C15) bicycle peptide]
Change from Baseline in CSBMs, Mean (SD) (Week 3, 6 mg, ITT Population): 1.82 (2.949) CSBMs/week | Change from Baseline in CSBMs, Difference from Placebo [1]: 0.61 CSBMs/week | Change from Baseline in CSBMs, LS Mean (SE) [1]: 1.83 (0.154) CSBMs/week | Change from Baseline in CSBMs, Mean (SD) [1]: 1.83 (2.958) CSBMs/week | Change from Baseline in CSBMs, Mean (SD) (Week 3, Active Combined, ITT Population-Excluding Duplicate Patients): 1.89 (3.049) CSBMs/week | Change from Baseline in CSBMs, Mean (SD) (Week 3, Active Combined, ITT Population): 1.88 (3.032) CSBMs/week | Change from Baseline in CSBMs, Difference from Placebo (Week 4, 3 mg, ITT Population): 0.91 CSBMs/week | Change from Baseline in CSBMs, LS Mean (SE) (Week 4, 3 mg, ITT Population): 2.16 (0.153) CSBMs/week | Change from Baseline in CSBMs, Mean (SD) (Week 4, 3 mg, ITT Population): 2.19 (3.395) CSBMs/week | Change from Baseline in CSBMs, Difference from Placebo [2]: 0.92 CSBMs/week | Change from Baseline in CSBMs, LS Mean (SE) [2]: 2.20 (0.156) CSBMs/week | Change from Baseline in CSBMs, Mean (SD) [2]: 2.22 (3.418) CSBMs/week | Change from Baseline in CSBMs, Difference from Placebo (Week 4, 6 mg, ITT Population): 0.75 CSBMs/week | Change from Baseline in CSBMs, LS Mean (SE) (Week 4, 6 mg, ITT Population): 2.00 (0.152) CSBMs/week | Change from Baseline in CSBMs, Mean (SD) (Week 4, 6 mg, ITT Population): 2.03 (3.243) CSBMs/week | Change from Baseline in CSBMs, Difference from Placebo [3]: 0.75 CSBMs/week | Change from Baseline in CSBMs, LS Mean (SE) [3]: 2.02 (0.154) CSBMs/week | Change from Baseline in CSBMs, Mean (SD) [3]: 2.03 (3.254) CSBMs/week | Change from Baseline in CSBMs, Mean (SD) (Week 4, Active Combined, ITT Population-Excluding Duplicate Patients): 2.13 (3.335) CSBMs/week | Change from Baseline in CSBMs, Mean (SD) (Week 4, Active Combined, ITT Population): 2.11 (3.318) CSBMs/week | Change from Baseline in CSBMs, Difference from Placebo (Week 5, 3 mg, ITT Population): 0.84 CSBMs/week | Change from Baseline in CSBMs, LS Mean (SE) (Week 5, 3 mg, ITT Population): 2.31 (0.154) CSBMs/week | Change from Baseline in CSBMs, Mean (SD) (Week 5, 3 mg, ITT Population): 2.39 (3.375) CSBMs/week | Change from Baseline in CSBMs, Difference from Placebo [4]: 0.85 CSBMs/week | Change from Baseline in CSBMs, LS Mean (SE) [4]: 2.35 (0.157) CSBMs/week | Change from Baseline in CSBMs, Mean (SD) [4]: 2.43 (3.395) CSBMs/week | Change from Baseline in CSBMs, Difference from Placebo (Week 5, 6 mg, ITT Population): 0.48 CSBMs/week | Change from Baseline in CSBMs, LS Mean (SE) (Week 5, 6 mg, ITT Population): 1.95 (0.153) CSBMs/week | Change from Baseline in CSBMs, Mean (SD) (Week 5, 6 mg, ITT Population): 1.99 (3.019) CSBMs/week | Change from Baseline in CSBMs, Difference from Placebo [5]: 0.46 CSBMs/week | Change from Baseline in CSBMs, LS Mean (SE) [5]: 1.97 (0.154) CSBMs/week | Change from Baseline in CSBMs, Mean (SD) [5]: 1.99 (3.025) CSBMs/week | Change from Baseline in CSBMs, Mean (SD) (Week 5, Active Combined, ITT Population-Excluding Duplicate Patients): 2.20 (3.216) CSBMs/week | Change from Baseline in CSBMs, Mean (SD) (Week 5, Active Combined, ITT Population): 2.18 (3.202) CSBMs/week | Change from Baseline in CSBMs, Difference from Placebo (Week 6, 3 mg, ITT Population): 1.01 CSBMs/week | Change from Baseline in CSBMs, LS Mean (SE) (Week 6, 3 mg, ITT Population): 2.32 (0.155) CSBMs/week | Change from Baseline in CSBMs, Mean (SD) (Week 6, 3 mg, ITT Population): 2.43 (3.548) CSBMs/week | Change from Baseline in CSBMs, Difference from Placebo [6]: 1.01 CSBMs/week | Change from Baseline in CSBMs, LS Mean (SE) [6]: 2.35 (0.158) CSBMs/week | Change from Baseline in CSBMs, Mean (SD) [6]: 2.45 (3.571) CSBMs/week | Change from Baseline in CSBMs, Difference from Placebo (Week 6, 6 mg, ITT Population): 0.92 CSBMs/week | Change from Baseline in CSBMs, LS Mean (SE) (Week 6, 6 mg, ITT Population): 2.24 (0.153) CSBMs/week | Change from Baseline in CSBMs, Mean (SD) (Week 6, 6 mg, ITT Population): 2.29 (3.384) CSBMs/week | Change from Baseline in CSBMs, Difference from Placebo [7]: 0.93 CSBMs/week | Change from Baseline in CSBMs, LS Mean (SE) [7]: 2.27 (0.155) CSBMs/week | Change from Baseline in CSBMs, Mean (SD) [7]: 2.31 (3.391) CSBMs/week | Change from Baseline in CSBMs, Mean (SD) (Week 6, Active Combined, ITT Population-Excluding Duplicate Patients): 2.38 (3.478) CSBMs/week | Change from Baseline in CSBMs, Mean (SD) (Week 6, Active Combined, ITT Population): 2.36 (3.464) CSBMs/week | Change from Baseline in CSBMs, Difference from Placebo (Week 7, 3 mg, ITT Population): 0.81 CSBMs/week | Change from Baseline in CSBMs, LS Mean (SE) (Week 7, 3 mg, ITT Population): 2.29 (0.155) CSBMs/week | Change from Baseline in CSBMs, Mean (SD) (Week 7, 3 mg, ITT Population): 2.40 (3.413) CSBMs/week | Change from Baseline in CSBMs, Difference from Placebo [8]: 0.83 CSBMs/week | Change from Baseline in CSBMs, LS Mean (SE) [8]: 2.33 (0.158) CSBMs/week | Change from Baseline in CSBMs, Mean (SD) [8]: 2.44 (3.435) CSBMs/week | Change from Baseline in CSBMs, Difference from Placebo (Week 7, 6 mg, ITT Population): 0.82 CSBMs/week | Change from Baseline in CSBMs, LS Mean (SE) (Week 7, 6 mg, ITT Population): 2.31 (0.154) CSBMs/week | Change from Baseline in CSBMs, Mean (SD) (Week 7, 6 mg, ITT Population): 2.38 (3.361) CSBMs/week | Change from Baseline in CSBMs, Difference from Placebo [9]: 0.83 CSBMs/week | Change from Baseline in CSBMs, LS Mean (SE) [9]: 2.34 (0.155) CSBMs/week | Change from Baseline in CSBMs, Mean (SD) [9]: 2.40 (3.369) CSBMs/week | Change from Baseline in CSBMs, Mean (SD) (Week 7, Active Combined, ITT Population-Excluding Duplicate Patients): 2.42 (3.399) CSBMs/week | Change from Baseline in CSBMs, Mean (SD) (Week 7, Active Combined, ITT Population): 2.39 (3.384) CSBMs/week | Change from Baseline in CSBMs, Difference from Placebo (Week 8, 3 mg, ITT Population): 1.01 CSBMs/week | Change from Baseline in CSBMs, LS Mean (SE) (Week 8, 3 mg, ITT Population): 2.52 (0.156) CSBMs/week | Change from Baseline in CSBMs, Mean (SD) (Week 8, 3 mg, ITT Population): 2.67 (3.747) CSBMs/week | Change from Baseline in CSBMs, Difference from Placebo [10]: 1.06 CSBMs/week | Change from Baseline in CSBMs, LS Mean (SE) [10]: 2.56 (0.158) CSBMs/week | Change from Baseline in CSBMs, Mean (SD) [10]: 2.68 (3.765) CSBMs/week | Change from Baseline in CSBMs, Difference from Placebo (Week 8, 6 mg, ITT Population): 0.82 CSBMs/week | Change from Baseline in CSBMs, LS Mean (SE) (Week 8, 6 mg, ITT Population): 2.33 (0.154) CSBMs/week
